Consider five compounds from patent publication US12227492B1, “Pyrimidine nucleosides as anticancer agents against pancreatic cancer” (Florida A&M University, priority 2021, dated 2025).

Data set [1] has as its system MiaPaCa-2 pancreatic cancer cell line. Nature of the data set: In vitro cell viability studies (resazurin/Alamar Blue). In kind it is cell-based. To be noted: for IC50: Homo sapiens, MIA PaCa-2, MiaPaCa-2, 48 hr incubation. Here is the method:
Prior to viability studies, Dulbecco's modified Eagle medium (DMEM) with high glucose and L-glutamine was supplemented with 10% fetal bovine serum (FBS) and 1% penicillin-streptomycin (PenStrep). Briefly, MiaPaCa-2 cells were seeded at a density of 1×10^3 per well in 96-well plates in triplicates for each drug concentration level and incubated at 5% CO2 and temperature of 37° C. At 70-75% confluence, MiaPaCa-2 cells were treated with compounds XYZ-I-71, XYZ-I-73, 5-Fluorouracil (5-FU), Gemcitabine (Gem) and Irinotecan. Varying concentrations of 4NSG was prepared from its stock solution with growth medium. For 5-Fluorouracil (5-FU), Gemcitabine Hydrochloride (GemHCl) and Irinotecan, a stock solution was prepared with phosphate-buffered saline (PBS) and serially diluted with growth medium to prepare varied concentrations: thus 3, 6, 12, 25, and 100 μM. Cells was treated with 100 μL of each drug concentration in triplicates and incubated for 48 hr. At termination, 20 μL of 0.05% resazurin sodium salt (Alamar Blue®) was added and incubated at optimum conditions (5% CO2, 37° C.) for 4 hr. Fluorimetric analysis was determined at excitation wavelength of 560/580 nm and emission wavelength of 590/610 nm and the percent viable cells per concentration was calculated. For statistical analysis, results are presented as mean±SD. Data were analyzed for significance by one-way ANOVA, using GraphPad Prism 5 Software and IC50 values were determined.
On the technique in general: Resazurin is reduced to fluorescent resorufin, in cell work by metabolically active cells.

A further data set can be described thus: Log P. The data set is classed as physicochemical.
For another data set, the system named is MiaPaCa-2 cells. Nature of the data set: In vitro cell migration (wound) assay. In kind it is cell-based. The settings on record: 2, 5 and 10 μM, after 48 h, compared with 5-FU, GemHCl. Here is the method: A uniform scratch was made in 90% confluent monolayer culture of MiaPaCa-2 cells and the extent of closure was monitored under microscope and photographed. […] Migrated cells within the scratch were quantified and the distance of migration measured using NIH ImageJ software. […] Over the same incubation time, the cells in the control group (48 h) migrated farther achieving a complete or near closure of the wounds. The results are expressed as the means (±SEM, N=4) relative to the control.
Cell migration assay was conducted to determine the effect of on 5-FU, GemHCl, XYZ-I-71 and XYZ-I-73 MiaPaCa-2 cell motility. Ibidi cell culture inserts were used to generate two confluent monolayers of cells separated by a “wound” for this assay. The cells were seeded in 24-well plates at a cell density of 2.5×10^5, for 24 h at 37° C. At 75% confluency, cells formed adherent monolayers on either side of the tissue culture insert. Prior to treatment, the cells were serum-starved by replacing complete media with base media (DMEM) and then further incubated for 24 hours. After serum starving, the insert was gently removed to generate a gap or “wound’ between the two confluent layers of cells. The monolayers were washed with experimental media and afterwards cells were exposed to varying concentrations of 5-FU, GemHCl, XYZ-I-71 and XYZ-I-73 (1, 2, 5 and 10 μM). […]

[2] abbreviates: mean ± SD, read-out: IC50 (μM) against MiaPaCa-2 cell line as determined by cell viability studies.
The mark [3] stands for this setting: read-out: IC50 values, cytotoxic activity against MiaPaCa-2 cancer line.

Where a name gives a salt, the structure may show the parent alone. Read-outs that look alike come from different tables or passages of the source.

In the case of `Nc1ccn([C@@H]2O[C@H](CO)[C@@H](O)C2(F)F)c(=O)n1` [GemHCl, Gemcitabine Hydrochloride, reference compound], the half-inhibitory concentration (IC50) – broadly, the midpoint of a concentration-inhibition curve – in data set [1] (setting [2]) is 25.3 ± 1.3 µM.

As for `CCCCCCCC(=O)Nc1nc(=O)n(C2CCCO2)cc1F` (centres unmarked) [XYZ-I-71, N-(5-fluoro-2-oxo-1-(tetrahydrofuran-2-yl)-1,2-dihydropyrimidin-4-yl)octanamide], the logP (usually the decadic logarithm of the partition coefficient of the neutral form, usually between octanol and water) in “Log P” stood at 2.27. In addition, the IC50 in data set [1] (setting [2]) was 13.8 ± 1.7 µM; in data set [1] (setting [3]) it was 13.8 ± 1.1 µM. The “efficacy against MiaPaCa-2 cancer line compared with 5-FU (IC50 data)” value in data set [1] (MiaPaCa-2) is given as “greater efficacy”. In addition, the “number of migrated cells towards the wound” value with MiaPaCa-2 cells is listed as “significantly inhibited”.

Take `O=c1[nH]cc(F)c(=O)[nH]1` [Compound 5-FU, 5-Fluorouracil, reference compound]: the IC50 in data set [1] (setting [2]) amounted to 51.1 ± 1.1 µM.

In turn, `CCCCCCCCCCCC(=O)Nc1nc(=O)n(C2CCCO2)cc1F` (centres unmarked) [XYZ-I-73, N-(5-fluoro-2-oxo-1-(tetrahydrofuran-2-yl)-1,2-dihydropyrimidin-4-yl)dodecanamide] had a logP in “Log P” of 3.94. Besides, the IC50 amounted to 6.81 ± 2.1 µM in data set [1] (setting [2]) and 6.81 ± 1.1 µM in data set [1] (setting [3]). The “cytotoxic activity against MiaPaCa-2, XYZ-I-73 versus XYZ-I-71” value in data set [1] (MiaPaCa-2, FIG. 7) is recorded as “significant higher cytotoxic activity”. The “efficacy against MiaPaCa-2 cancer line compared with 5-FU (IC50 data)” value in data set [1] (MiaPaCa-2) is “greater efficacy”. Moreover, the “number of migrated cells towards the wound” value in the data set with MiaPaCa-2 cells is given as “significantly inhibited”.

As for `CCc1c2c(nc3ccc(OC(=O)N4CCC(N5CCCCC5)CC4)cc13)-c1cc3c(c(=O)n1C2)COC(=O)[C@]3(O)CC` [Irinotecan, reference compound], in data set [1] (setting [2]), the IC50 is 28 ± 1.5 µM.
